What was measured:
[1] = tested on: MCF7; assay: Antiproliferative activity against human MCF7 cells after 48 hrs by MTT assay; assay type: functional, cell-based
[2] = tested on: MDA-MB-231; assay: Antiproliferative activity against human MDA-MB-231 cells after 48 hrs by MTT assay; assay type: functional, cell-based
[3] = Homo sapiens, MCF7, 48 h, read-out: IC50
[4] = Homo sapiens, MDA-MB-231, 48 h, read-out: IC50

SMILES	IC50 [1, 3] [µM]	IC50 [2, 4] [µM]	IC50 ([2]; mda-mb-231)	IC50 ([1]; mcf7)	Activity [1]	Activity [2]
CCCc1cc(=O)oc2cc(-c3ccc(NS(C)(=O)=O)cc3)c3c(c12)OC(C)(C)C=C3	3.3	27.2			Dose-dependent effect	Dose-dependent effect
O=c1cc(-c2ccccc2)c2c(O)cc(-c3cccc4c3Sc3ccccc3S4)cc2o1	14.2	9.3			Dose-dependent effect	Dose-dependent effect
CCCc1cc(=O)oc2cc(-c3cc4ccccc4s3)cc(O)c12	22.3	50				
Cc1cc(=O)oc2cc(I)cc(O)c12	18.3		Not Active			
CC1(C)C=Cc2c(-c3ccc(NS(C)(=O)=O)cc3)cc3oc(=O)cc(-c4ccccc4)c3c2O1	5.3	28.9			Dose-dependent effect	Dose-dependent effect
CC1(C)C=Cc2c(I)cc3oc(=O)cc(-c4ccccc4)c3c2O1	54.3		Not Active			
CC1(C)C=Cc2c(-c3cc4ccccc4s3)cc3oc(=O)cc(-c4ccccc4)c3c2O1	77.7		Not Active			
CCCc1cc(=O)oc2cc(I)cc(O)c12	26.8		Not Active			
Cc1cc(=O)oc2cc(-c3ccc(NC(=O)CCC(=O)O)cc3)c3c(c12)OC(C)(C)C=C3			Not Active	Not Active		
CC1(C)C=Cc2c(-c3cccc4c3Sc3ccccc3S4)cc3oc(=O)cc(-c4ccccc4)c3c2O1	7.2	33.6			Dose-dependent effect	Dose-dependent effect
Cc1cc(=O)oc2cc(-c3ccc(NS(C)(=O)=O)cc3)c3c(c12)OC(C)(C)C=C3	6.5	61.2			Dose-dependent effect	Dose-dependent effect
CCCc1cc(=O)oc2cc(-c3cc4ccccc4s3)c3c(c12)OC(C)(C)C=C3	22.8		Not Active			
CC1(C)C=Cc2c(-c3ccc(NC(=O)CCC(=O)O)cc3)cc3oc(=O)cc(-c4ccccc4)c3c2O1			Not Active	Not Active		
CCCc1cc(=O)oc2cc(-c3cccc4c3Sc3ccccc3S4)c3c(c12)OC(C)(C)C=C3	> 100		Not Active			

Now from value to compound, other results behind:

IC50 [1, 3] [µM]	IC50 [2, 4] [µM]	IC50 ([2]; mda-mb-231)	IC50 ([1]; mcf7)	SMILES	Activity [1]	Activity [2]
14.4	7.9			CCCc1cc(=O)oc2cc(-c3cccc4c3Sc3ccccc3S4)cc(O)c12	Dose-dependent effect	Dose-dependent effect
25		Not Active		O=c1cc(-c2ccccc2)c2c(O)cc(I)cc2o1		
30.7		Not Active		Cc1cc(=O)oc2cc(I)c3c(c12)OC(C)(C)C=C3		
7.6	10.6			O=c1cc(-c2ccccc2)c2c(O)cc(-c3cc4ccccc4s3)cc2o1	Dose-dependent effect	Dose-dependent effect
13.7		Not Active		CCCc1cc(=O)oc2cc(I)c3c(c12)OC(C)(C)C=C3		
		Not Active	Not Active	CCCc1cc(=O)oc2cc(-c3ccc(NC(=O)CCC(=O)O)cc3)c3c(c12)OC(C)(C)C=C3		
25.4	> 100			Cc1cc(=O)oc2cc(-c3cc4ccccc4s3)c3c(c12)OC(C)(C)C=C3		

Reference: ChEMBL document CHEMBL1153483, “Synthesis and evaluation of novel substituted 5-hydroxycoumarin and pyranocoumarin derivatives exhibiting significant antiproliferative activity against breast cancer cell lines” (Bioorg Med Chem Lett, 2009)
